Results on 14 molecules are retold here after ChEMBL document CHEMBL1144445, “Design, synthesis and antiviral activity of novel 4,5-disubstituted 7-(beta-D-ribofuranosyl)pyrrolo[2,3-d][1,2,3]triazines and the novel 3-amino-5-methyl-1-(beta-D-ribofuranosyl)- and 3-amino-5-methyl-1-(2-deoxy-beta-D-ribofuranosyl)-1,5-dihydro-1,4,5,6,7,8-hexaazaacenaphthylene as analogues of …” (J Med Chem, 2005).

Test [1] concerns Human alphaherpesvirus 1. The experiment in a line: Inhibitory concentration against human herpes simplex virus type 1 using ELISA test. In kind it is functional, organism-based. For orientation: ELISA stands for enzyme-linked immunosorbent assay.
Test [2] has as its system HFF. In words: Visual cytotoxicity was determined in uninfected HFF cells using plaque assay. In kind it is functional, cell-based. Particulars: Homo sapiens.
Test [3] deals with KB. In words: Inhibitory concentration was determined for KB cell growth. The class given is functional, cell-based. The following applies: Homo sapiens.
For test [4], the system named is Human betaherpesvirus 5. The experiment in a line: Inhibitory concentration against human cytomegalovirus using plaque assay. The class given is functional, organism-based.
The test system of test [5] is Human betaherpesvirus 5. In words: Inhibitory concentration against human cytomegalovirus using yield-reduction assay. The class given is functional.
Test [6] deals with Human immunodeficiency virus 1. The experiment in a line: Inhibitory concentration against human immunodeficiency virus type 1. The class given is functional, organism-based.

As to `COC(=N)c1cn([C@@H]2O[C@H](CO)[C@@H](O)[C@H]2O)c2nnnc(N)c12`, the IC50 was greater than 100 µM in test [1], 21 µM in test [2], 20 µM in test [3] and 32 µM in test [4].

In the case of `N#Cc1cn([C@@H]2O[C@H](COC(=O)c3ccccc3)[C@@H](OC(=O)c3ccccc3)[C@H]2OC(=O)c2ccccc2)c2nnnc(-n3cncn3)c12`, the half-inhibitory concentration (IC50) in test [1], in test [2], in test [3] and in test [4] was greater than 10 µM each time.

On to `NC(=O)c1cn([C@@H]2O[C@H](COC(=O)c3ccccc3)[C@@H](OC(=O)c3ccccc3)[C@H]2OC(=O)c2ccccc2)c(N)c1C(N)=O`, for which the IC50 in test [1], in test [2], in test [3] and in test [4] was greater than 10 µM in each case.

Consider `NC(=S)c1cn([C@@H]2O[C@H](CO)[C@@H](O)[C@H]2O)c2nnnc(N)c12`, for which the IC50 in test [1] worked out at 40 µM; in test [2], 32 µM; in test [3], 2 µM; in test [4], 8.5 µM.

Consider `CN(N)c1nnnc2c1c(C#N)cn2[C@@H]1O[C@H](COC(=O)c2ccccc2)[C@@H](OC(=O)c2ccccc2)[C@H]1OC(=O)c1ccccc1`, for which the IC50 in test [1], in test [2], in test [3] and in test [4] was greater than 10 µM in each case.

As to `NC(=O)c1cn([C@@H]2O[C@H](CO)[C@@H](O)[C@H]2O)c2nnnc(N)c12`, the IC50 in test [1] is 2.5 µM; in test [2] it was 0.3 µM; in test [3], 0.08 µM; in test [4], 0.3 µM. For the same molecule, the IC90 in test [5] was determined as 0.4 µM.

As for `CN1N=C(N)c2cn([C@@H]3O[C@H](CO)[C@@H](O)[C@H]3O)c3nnnc1c23`, the IC50 in test [1] was greater than 100 µM; in test [2], 10 µM; in test [3], 2.5 µM; in test [6] it was 0.6 µM; in test [4], 14 µM.

With `N#C/N=C(\N)c1cn([C@@H]2O[C@H](CO)[C@@H](O)[C@H]2O)c2nnnc(N)c12`, the IC50 is greater than 100 µM in test [1], greater than 100 µM in test [2], 5 µM in test [3] and greater than 100 µM in test [4].

For the molecule `CCOC(=O)c1cn([C@@H]2O[C@H](CO)[C@@H](O)[C@H]2O)c2nnnc(N)c12`, the IC50 in test [1] is greater than 100 µM; in test [2] it was greater than 100 µM; in test [3], 80 µM; in test [4], greater than 100 µM.

For the molecule `N/C(=N\O)c1cn([C@@H]2O[C@H](CO)[C@@H](O)[C@H]2O)c2nnnc(N)c12`, the IC50 in test [1] is 0.9 µM; in test [2], 6.6 µM; in test [3], 1.5 µM; in test [4] it was less than 2 µM.

Take `Cc1ccc(C(=O)OC[C@H]2O[C@@H](n3cc(C(N)=O)c(C(N)=O)c3[N+](=O)[O-])C[C@@H]2OC(=O)c2ccc(C)cc2)cc1`: the IC50 in test [1] is greater than 100 µM; in test [2] it was 32 µM; in test [4], 32 µM.

As to `N=C(NN)c1cn([C@@H]2O[C@H](CO)[C@@H](O)[C@H]2O)c2nnnc(N)c12`, the IC50 in test [1] was determined as 80 µM; in test [2], 32 µM; in test [3], 3 µM; in test [4], 32 µM. Also, the IC90 in test [5] turned out to be 1 µM.

As for `NC(=O)c1cn([C@@H]2O[C@H](COC(=O)c3ccccc3)[C@@H](OC(=O)c3ccccc3)[C@H]2OC(=O)c2ccccc2)c2nnnc(O)c12`, the IC50 in test [1], in test [2], in test [3] and in test [4] was greater than 10 µM each time.

`Cc1ccc(C(=O)OC[C@H]2O[C@@H](n3cc(C(N)=O)c(C(N)=O)c3N)C[C@@H]2OC(=O)c2ccc(C)cc2)cc1`: the IC50 in test [1] is greater than 100 µM; in test [2], 32 µM; in test [3] it was 100 µM; in test [4] it was 12 µM.

The term IC50 denotes the midpoint of a concentration-inhibition curve. A high value points to a need for much substance. In general, IC90 refers to the concentration at which the effect reaches the 90% level. Higher therefore signals weaker potency.
